Read-outs that look alike come from different tables or passages of the source.
Tests used:
[1] = system: primary corticalstriatal neuronal co-cultures containing glia; format: cell-based
Experimental: FIGS. 6A, 6B, 7A, 7B, 8A, and 8B depict the results of comparative cellular toxicities of the triterpenes to primary corticalstriatal neuronal co-cultures containing glia evaluated according to the example below: ursolic acid (FIGS. 6A, 6B), betulinic acid (FIGS. 7A, 7B) and oleanolic acid (FIGS. 8A, 8B). For FIGS. 6A, 7A and 8A, propidium iodide was added for one hour then the numbers of PI-positive cells were scored under automated high-content analysis on the Cellomics ArrayScan VTI. For FIGS. 6B, 7B and 8B, MTS substrate was added for two hours then co-culture wells were measured for absorbance at 450 nm using a multi-well plate reader.
We determined whether the reduced neuroprotective activity of Compositions I and II might be due to cellular toxicity of one or more of the individual triterpenes. We conducted a direct study of the cellular toxicities of oleanolic acid (OA), ursolic acid (UA), and betulinic acid (BA) using two independent measures of cell death: propidium iodide (PI) staining for nuclear breakdown and the MTS assay for cell metabolic activity. […] The MTS assay is a well-based assay in which cleavage of a tetrazolium reporter by mitochondrial enzymes produces colorimetric readout and reports relative numbers of healthy cells.

[2] = system: ARE target genes (Srx, Hmox1); test: ARE gene expression qPCR in rat primary corticostriatal co-cultures; format: cell-based
Experimental: FIG. 3 (prior art: Van Kanegan: vide supra) depicts the results of ARE gene expression assays for Fraction 0-4 and the individual triterpenes oleanolic acid, ursolic acid, betulinic acid and uvaol (also referred to as uvalol). “X” symbols denote concentrations of compounds which induced toxicity and for which recovery of residual mRNA was insufficient to support qPCR analysis. Rat primary corticostriatal co-cultures were treated for 6 h with Fraction 0-4 (in μg/ml) or oleanolic acid, ursolic acid, betulinic acid, or uvaol (all in μM) at the concentrations indicated, then harvested and processed for qPCR analysis of the ARE target genes shown. Quantitative RNA values were normalized to the GAPDH reference control and fold-expression changes are expressed relative to the DMSO-carrier only condition (“--”) set to a value of 1. Dark bars denote statistically significant differences with respect to the DMSO-carrier only control by a Student's t-test at p<0.05.
FIG. 4 depicts the results of expression assays for Fraction 0-4 and the individual triterpenes ursolic acid and betulinic acid at more closely-spaced concentration ranges. Rat primary corticostriatal co-cultures were treated for 6 h with Fraction 0-4 (in μg/ml) or ursolic acid and betulinic acid (in μM) at the concentrations indicated, then harvested and processed for qPCR analysis of the ARE target genes shown. Quantitative RNA values were normalized to the GAPDH reference control and fold-expression changes are expressed relative to the DMSO-carrier only condition (“--”) set to a value of 1. Dark blue bars denote statistically significant differences with respect to the DMSO-carrier only control by a Student's t-test at p<0.05.
FIGS. 10A and 10B depict the results of comparative Srx (FIG. 10A) and Hmox1 (FIG. 10B) expression assays for PBI-05204, PBI-04711 (also referred to as Fxn 0-4), oleanolic acid (O), ursolic acid (U), betulinic acid (B) and combinations of the triterpenes present at the specified molar ratios. Quantitative RNA values were normalized to the GAPDH reference control and fold-expression changes are shown relative to the DMSO-carrier only condition set to a value of 1. Dark blue bars denote statistically significant differences with respect to the DMSO-carrier only control by a Student's t-test at p<0.05. Striped, red bars denote conditions which induced excessive levels of ARE gene expression, namely, by more than 10-fold.
For qPCR quantification of ARE target gene expression levels, cortical and striatal neurons were plated onto 96-well plates containing mature glial cultures and cultured for 96 h. Composition was added to cultures at the indicated concentrations for 6 h. At the end of the treatment period, cells were lysed and total RNA was isolated using Absolutely RNA mini-prep kits (Agilent Technologies/Stratagene). cDNA was generated using oligo dT primers and Superscript II reverse transcriptase (Invitrogen). Resulting cDNA was used for quantitative PCR of gene transcripts using SYBR Green Real-Time PCR Master Mix (Life Technologies) and the following mouse primers, for: Gcic (forward-5′ […]-3′ (SEQ ID NO. 1) and reverse-5′-[…]-3′) (SEQ ID NO. 2), Ngo1 (forward-5′-GCCCGCATGCAGATCCT-3′ (SEQ ID NO. 3) and reverse 5′-[…]3′) (SEQ ID NO. 4), Srx (forward-5′-[…]-3′ (SEQ ID NO. 5) and reverse-5′-[…]-3′) (SEQ ID NO. 6), and Hmox1 (forward-5′-[…]-3′ (SEQ ID NO. 7) and reverse-5′-[…]-3′) (SEQ ID NO. 8) (Integrated DNA Technologies). […]

[3] = system: cortical pyramidal neurons; details: prior art FIG. 5; equimolar basis; cited from earlier work
[4] = system: ARE target genes (Srx, Hmox1); details: 6 h; prior art FIG. 3; compared among UA, BA, OA; cited from earlier work

SMILES	concentration leading to 50% loss of metabolic activity [1] [µM]	cellular toxicity ([2]; even at low concentration)	ARE gene expression induction ([2]; single agent, any concentration tested, FIGS. 10A, 10B)	neuroprotective activity of individual triterpenes in OGD assay [3]	inducing ARE gene expression as single agent [4]	cellular toxicity [2]	upregulation of Srx and Hmox1 ([2]; 6 h, closely-spaced concentrations, FIG. 4)	ARE gene expression induction (Srxn1) ([2]; single agent at 9 μM, relative to DMSO) [fold]
C=C(C)[C@@H]1CC[C@]2(C(=O)O)CC[C@]3(C)[C@H](CC[C@@H]4[C@@]5(C)CC[C@H](O)C(C)(C)[C@@H]5CC[C@]43C)[C@@H]12 [BA, betulinic acid]	5 to 15	caused cellular toxicity	–	–	–	–	–	–
CC1(C)CC[C@]2(C(=O)O)CC[C@]3(C)C(=CC[C@@H]4[C@@]5(C)CC[C@H](O)C(C)(C)[C@@H]5CC[C@]43C)[C@@H]2C1 [OA, oleanolic acid]	–	–	not able to induce appreciable ARE gene expression	higher activity than UA	relatively inactive	–	–	–
C[C@H]1[C@H](C)CC[C@]2(C(=O)O)CC[C@]3(C)C(=CC[C@@H]4[C@@]5(C)CC[C@H](O)C(C)(C)[C@@H]5CC[C@]43C)[C@H]12 [UA, ursolic acid]	5 to 15	–	–	variable activity	considerably more potent	caused cellular toxicity	clear upregulation	> 10
